Results published in US20250152574A1 (BIOGEN MA INC., priority 2022, published 2025).

The molecules below were run against T1, EBP (Homo sapiens, UniProt Q15125) (assay: EBP Functional Assay (EBP immunoaffinity LC-MS assay)). Conditions: HEK293T cells as source of EBP enzyme; substrate zymosterol-d5, 37° C. for 4 h; percent conversion to dehydrolathosterol-d5 by LC-APCI MRM MS.
T1 construct: HEK293T cells were utilized as the source of EBP enzyme; endogenous in cells; host or cells: HEK293T
Format: biochemical
Method: The EBP immunoaffinity (IA) LC-MS assay measures the potency of small molecule inhibitors of EBP by quantifying their concentration-dependent changes in the enzyme's substrate and product using liquid chromatography atmospheric pressure chemical ionization multiple reaction monitoring mass spectrometry (LC-APCI MRM MS). HEK293T cells were utilized as the source of EBP enzyme. The enzyme was incubated with the small molecule inhibitors at variable concentrations for 30 min. Deuterated form of EBP substrate, zymosterol-d5 (Avanti Polar Lipids, Cat #700068P-1 mg), was then added and the plate was incubated at 37° C. for 4 h. Finally, the sterol isomers were extracted and injected to LC-APCI MRM MS. MRM transition used for the quantification for both zymosterol and […] (substrate and product of EBP enzymatic reaction, respectively) is 372.3-203.2, CE 30 and DP 80 in positive ion mode. Percent conversion of the zymosterol-d5 to dehydrolathosterol-d5 was used to derive IC50 curves. Tasin-1 (1′-[(4-Methoxyphenyl)sulfonyl]-4-methyl-1,4′-bipiperidine, CAS 792927-06-1) was used as the reference small molecule inhibitor.
Percent conversion versus the compound concentration data were fit to the following 4-parameter logistic model to generate IC50 curves: […]

T1 sequence (Q15125 whole entry): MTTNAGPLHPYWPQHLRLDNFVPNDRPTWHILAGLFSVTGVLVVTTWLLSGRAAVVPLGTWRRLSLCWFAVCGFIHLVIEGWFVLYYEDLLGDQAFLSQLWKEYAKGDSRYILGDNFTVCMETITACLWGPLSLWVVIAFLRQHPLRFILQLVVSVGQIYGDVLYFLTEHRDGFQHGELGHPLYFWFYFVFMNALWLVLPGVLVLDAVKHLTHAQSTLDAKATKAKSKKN

Row | SMILES | IC50 [nM]
1 | COCCN(C)C1CCC2(CCN(S(=O)(=O)c3cc(C)cnc3OC)CC2)C1 (centres unmarked) [Example 40] | 100 to 250
2 | O=S(=O)(c1ccc2cccnc2c1)N1CCC2(CCC(N3CC4(COC4)C3)C2)CC1 (centres unmarked) [Example 144, 6-(8-(quinolin-7-ylsulfonyl)-8-azaspiro[4.5]decan-2-yl)-2-oxa-6-azaspiro[3.3]heptane] | 100 to 250
3 | O=S(=O)(c1ccc(OC(F)F)cc1)N1CCC2(CC1)CC(N1CC3(CCOC3)C1)CO2 (centres unmarked) [Example 69, 8-((4-(Difluoromethoxy)phenyl)sulfonyl)-3-(6-oxa-2-azaspiro[3.4]octan-2-yl)-1-oxa-8-azaspiro[4.5]decane] | 250 to 1500
4 | Cn1nc(C2CC2)cc1S(=O)(=O)N1CCC2(CC1)C[C@H](N1CC3(COC3)C1)CO2 (single isomer, unassigned) [Example 57b] | 250 to 1500
5 | Cc1ccc(S(=O)(=O)N2CCC3(CC2)C[C@@H](N2CC(O)C2)CO3)c(Cl)c1 (single isomer, unassigned) [Example 53a] | < 100
6 | Cc1cc(S(=O)(=O)N2CCC3(CCC(N4CC5(COC5)C4)C3)CC2)n(C)n1 (centres unmarked) [Example 142, 6-(8-((1,3-dimethyl-1H-pyrazol-5-yl)sulfonyl)-8-azaspiro[4.5]decan-2-yl)-2-oxa-6-azaspiro[3.3]heptane] | 100 to 250
7 | N#Cc1cc(F)cc(S(=O)(=O)N2CCC3(CC[C@@H](N4CC5(COC5)C4)C3)CC2)c1 (single isomer, unassigned) [Example 85a] | 100 to 250
8 | N#Cc1cc(F)cc(S(=O)(=O)N2CCC3(CC2)CC(N2CC4(COC4)C2)C3)c1 [Example 96, 3-((2-(2-oxa-6-azaspiro[3.3]heptan-6-yl)-7-azaspiro[3.5]nonan-7-yl)sulfonyl)-5-fluorobenzonitrile] | 250 to 1500
9 | N#Cc1cccc(S(=O)(=O)N2CCC3(CCC(N4CC5(COC5)C4)C3)CC2)c1F (centres unmarked) [Example 104] | < 100
10 | COc1ncc(C)cc1S(=O)(=O)N1CCC2(CCC(NC3(C)CCOC3)C2)CC1 (centres unmarked) [Example 42] | < 100
11 | Cc1ccc(S(=O)(=O)N2CCC3(CC2)CC(N2CC(C)(O)C2)CO3)c(Cl)c1 (centres unmarked) [Example 50, 1-(8-((2-Chloro-4-methylphenyl)sulfonyl)-1-oxa-8-azaspiro[4.5]decan-3-yl)-3-methylazetidin-3-ol] | 100 to 250
12 | COc1cc(S(=O)(=O)N2CCC3(CCC(N4CCOCC4)C3)CC2)n(C)n1 (centres unmarked) [Example 26, 4-(8-((3-Methoxy-1-methyl-1H-pyrazol-5-yl)sulfonyl)-8-azaspiro[4.5]decan-2-yl)morpholine] | < 100
13 | COc1cc(S(=O)(=O)N2CCC3(CCC(N4CC5(COC5)C4)C3)CC2)n(C)n1 (centres unmarked) [Example 124, 6-(8-((3-methoxy-1-methyl-1H-pyrazol-5-yl)sulfonyl)-8-azaspiro[4.5]decan-2-yl)-2-oxa-6-azaspiro[3.3]heptane] | < 100
14 | O=S(=O)(c1cc2cccnc2cc1F)N1CCC2(CCC(N3CCOCC3)C2)CC1 (centres unmarked) [Example 31, 4-(8-((7-fluoroquinolin-6-yl)sulfonyl)-8-azaspiro[4.5]decan-2-yl)morpholine] | 100 to 250
15 | Cc1cc(S(=O)(=O)N2CCC3(CC[C@@H](N4CCOCC4)C3)CC2)n(C)n1 (single isomer, unassigned) [Example 22a] | 250 to 1500
16 | COCCNC1COC2(CCN(S(=O)(=O)c3cc(C#N)ccc3F)CC2)C1 (centres unmarked) [Example 44, 4-Fluoro-3-((3-((2-methoxyethyl)amino)-1-oxa-8-azaspiro[4.5]decan-8-yl)sulfonyl)benzonitrile] | 250 to 1500
17 | Cc1cc(C(F)(F)F)ncc1S(=O)(=O)N1CCC2(CC1)CC(N1CCOCC1)CO2 (centres unmarked) [Example 4] | 250 to 1500
18 | COCCNC1COC2(CCN(S(=O)(=O)c3cc(C)cnc3OC)CC2)C1 (centres unmarked) [Example 65, 8-((2-Methoxy-5-methylpyridin-3-yl)sulfonyl)-N-(2-methoxyethyl)-1-oxa-8-azaspiro[4.5]decan-3-amine] | 100 to 250
19 | CCOc1ccc(S(=O)(=O)N2CCC3(CCC(N4CC5(COC5)C4)C3)CC2)cc1 (centres unmarked) [Example 108] | 250 to 1500
20 | O=S(=O)(c1ccc(OC(F)(F)F)cn1)N1CCC2(CCC(N3CC4(COC4)C3)C2)CC1 (centres unmarked) [Example 114] | 250 to 1500
21 | O=S(=O)(c1ccc2ccoc2c1)N1CCC2(CCC(N3CC4(COC4)C3)C2)CC1 (centres unmarked) [Example 135, 6-(8-(benzofuran-6-ylsulfonyl)-8-azaspiro[4.5]decan-2-yl)-2-oxa-6-azaspiro[3.3]heptane] | 100 to 250

Row | SMILES | IC50 [nM]
22 | Cc1cc(S(=O)(=O)N2CCC3(CCC(N4C[C@H]5C[C@@H]4CO5)C3)CC2)n(C)n1 (stereo partly drawn) [Example 88, (1R,4R)-5-(8-((1,3-dimethyl-1H-pyrazol-5-yl)sulfonyl)-8-azaspiro[4.5]decan-2-yl)-2-oxa-5-azabicyclo[2.2.1]heptane] | 100 to 250
23 | O=S(=O)(c1cc(F)cc(F)c1)N1CCC2(CC1)CC(N1CC3(COC3)C1)CO2 (racemic) [Example 118, rac-8-((3,5-difluorophenyl)sulfonyl)-3-(2-oxa-6-azaspiro[3.3]heptan-6-yl)-1-oxa-8-azaspiro[4.5]decane] | 100 to 250
24 | O=S(=O)(c1ccc(OC(F)F)cc1)N1CCC2(CC1)C[C@H](N1CC[C@]3(CCOC3)C1)CO2 (single isomer, unassigned) [Example 30b] | 250 to 1500
25 | O=S(=O)(c1ccc(OC2CC2)cn1)N1CCC2(CCC(N3CCOCC3)C2)CC1 (centres unmarked) [Example 32, 4-(8-((5-Cyclopropoxypyridin-2-yl)sulfonyl)-8-azaspiro[4.5]decan-2-yl)morpholine] | 250 to 1500
26 | Cn1nc(C(F)F)cc1S(=O)(=O)N1CCC2(CC1)CC(N1CC3(COC3)C1)C2 [Example 122, 6-(7-((3-(difluoromethyl)-1-methyl-1H-pyrazol-5-yl)sulfonyl)-7-azaspiro[3.5]nonan-2-yl)-2-oxa-6-azaspiro[3.3]heptane] | < 100
27 | COc1cc(S(=O)(=O)N2CCC3(CCC(N4CC5(COC5)C4)C3)CC2)c(F)cn1 (centres unmarked) [Example 113] | < 100
28 | Cc1cc(S(=O)(=O)N2CCC3(CC[C@@H](N4CC5(COC5)C4)C3)CC2)n(C)n1 (single isomer, unassigned) [Example 68a] | 100 to 250
29 | CCn1ncc(S(=O)(=O)N2CCC3(CCC(N4CC5(COC5)C4)C3)CC2)n1 (centres unmarked) [Example 111] | 250 to 1500
30 | O=S(=O)(c1ccc(OC(F)F)cc1)N1CCC2(CC[C@@H](N3C[C@H]4C[C@@H]3CO4)C2)CC1 (single isomer, unassigned) [Example 86a] | < 100
31 | O=S(=O)(c1cc(F)ccc1F)N1CCC2(CC1)CC(N1CCOCC1)CO2 (centres unmarked) [Example 19, 8-((2,5-Difluorophenyl)sulfonyl)-3-morpholino-1-oxa-8-azaspiro[4.5]decane] | 250 to 1500
32 | COc1ncc(Cl)cc1S(=O)(=O)N1CCC2(CC1)C[C@@H](N1CC3(COC3)C1)CO2 (single isomer, unassigned) [Example 63a] | < 100
33 | Cn1nc(C(F)(F)F)cc1S(=O)(=O)N1CCC2(CC1)CC(NC1CC3(COC3)C1)CO2 (centres unmarked) [Example 139, 8-((1-methyl-3-(trifluoromethyl)-1H-pyrazol-5-yl)sulfonyl)-N-(2-oxaspiro[3.3]heptan-6-yl)-1-oxa-8-azaspiro[4.5]decan-3-amine] | 100 to 250
34 | O=S(=O)(c1ccc(OC(F)F)cc1)N1CCC2(CCC(N3CCOCC3)C2)CC1 (centres unmarked) [Example 23, 4-(8-((4-(Difluoromethoxy)phenyl)sulfonyl)-8-azaspiro[4.5]decan-2-yl)morpholine] | 100 to 250
35 | O=S(=O)(c1ccc(OC(F)F)cc1)N1CCC2(CCC(N3C[C@H]4C[C@@H]3CO4)C2)CC1 (stereo partly drawn) [Example 27, (1R,4R)-5-(8-((4-(Difluoromethoxy)phenyl)sulfonyl)-8-azaspiro[4.5]decan-2-yl)-2-oxa-5-azabicyclo[2.2.1]heptane] | < 100
36 | O=S(=O)(c1ccc(OC(F)F)cc1)N1CCC2(CC[C@H](N3C[C@H]4C[C@@H]3CO4)C2)CC1 (single isomer, unassigned) [Example 86b] | < 100
37 | [2H]C([2H])([2H])N(CCOC)C1COC2(CCN(S(=O)(=O)c3cc(C)cnc3OC)CC2)C1 (centres unmarked) [Example 66, 8-((2-Methoxy-5-methylpyridin-3-yl)sulfonyl)-N-(2-methoxyethyl)-N-(methyl-d3)-1-oxa-8-azaspiro[4.5]decan-3-amine] | 250 to 1500
38 | COc1ncc(C)cc1S(=O)(=O)N1CCC2(CC1)CC(N1CC3(COC3)C1)C2 [Example 93, 6-(7-((2-methoxy-5-methylpyridin-3-yl)sulfonyl)-7-azaspiro[3.5]nonan-2-yl)-2-oxa-6-azaspiro[3.3]heptane] | 100 to 250
39 | COc1ccc(S(=O)(=O)N2CCC3(CCC(N4CC(O)C4)C3)CC2)c(C)n1 (centres unmarked) [Example 99, 1-(8-((6-methoxy-2-methylpyridin-3-yl)sulfonyl)-8-azaspiro[4.5]decan-2-yl)azetidin-3-ol] | < 100
40 | COc1ccc(S(=O)(=O)N2CCC3(CC2)CC(N2CCOCC2)CO3)c(C)n1 (centres unmarked) [Example 20, 8-((6-Methoxy-2-methylpyridin-3-yl)sulfonyl)-3-morpholino-1-oxa-8-azaspiro[4.5]decane] | 250 to 1500
41 | COCCN(C)C1COC2(CCN(S(=O)(=O)c3cc(C4CC4)nn3C)CC2)C1 (centres unmarked) [Example 60, 8-((3-Cyclopropyl-1-methyl-1H-pyrazol-5-yl)sulfonyl)-N-(2-methoxyethyl)-N-methyl-1-oxa-8-azaspiro[4.5]decan-3-amine] | 250 to 1500
